Data published in patent US9556183B2, “Substituted pyrazolylpyrazole derivative and use of same as herbicide” (KYOYU AGRI CO., LTD., priority 2013, dated 2017).

Legend:
Format in all cases: in vivo
[1] = tested on: Monochoria vaginalis; test: Paddy herbicidal activity test; details: irrigated paddy pot, 30 days
Protocol: (§1) Rice paddy soil was filled into a 1/10000 are pot followed by the addition of suitable amounts of water and chemical fertilizer, kneading, seeding with Echinochloa crus-galli, Monochoria vaginalis and Scirpus juncoides and maintaining in an irrigated state at a water depth of 3 cm. Wettable powder of Target Compound (I) shown in Table 1 prepared in compliance with the preparation examples were diluted with a suitable amount of water, rice plants in the 2.0 leaf stage were transplanted during 3.5 leaf stage of Echinochloa crus-galli, and treated by dropping in chemical in the prescribed amount per are using a pipette. After treating for 30 days in a glass greenhouse at an average atmospheric temperature of 30° C., the herbicidal efficacy thereof was investigated. Evaluation of herbicidal efficacy was carried out by comparing growth inhibition rate (%) with an untreated group, while evaluation of phytotoxicity was carried out by comparing growth inhibition rate (%) with the state of a complete eradication group, and were evaluated at 11 levels indicated below. [table]

[2] = tested on: Scirpus juncoides; test: Paddy herbicidal activity test; details: irrigated paddy pot, 30 days
Protocol: as §1

[3] = tested on: Echinochloa crus-galli; test: Paddy herbicidal activity test; details: irrigated paddy pot, treated at 3.5 leaf stage of Echinochloa crus-galli, 30 days
Protocol: as §1

[4] = tested on: Rice plants; test: Paddy herbicidal activity test, phytotoxicity to transplanted rice; details: rice transplanted at 2.0 leaf stage, 30 days
Protocol: as §1

Compound | herbicidal efficacy (growth inhibition rate level) Monochoria vaginalis ([1]; 1g a.i./10a) | herbicidal efficacy (growth inhibition rate level) Monochoria vaginalis ([1]; 5g a.i./10a) | herbicidal efficacy (growth inhibition rate level) Scirpus juncoides ([2]; 1g a.i./10a) | herbicidal efficacy (growth inhibition rate level) Scirpus juncoides ([2]; 5g a.i./10a) | herbicidal efficacy (growth inhibition rate level) Echinochloa crus-galli ([3]; 1g a.i./10a) | herbicidal efficacy (growth inhibition rate level) Echinochloa crus-galli ([3]; 5g a.i./10a) | phytotoxicity (growth inhibition rate level) Rice plants ([4]; 1g a.i./10a) | phytotoxicity (growth inhibition rate level) Rice plants ([4]; 5g a.i./10a)
N#Cc1cnn(-c2nn3c(c2Cl)CCCC3)c1N(CC1CC1)C(=O)C(F)(F)C(F)(F)F [Compound 3] | 7 (7: 70% to less than 80%) | 7 (7: 70% to less than 80%) | 7 (7: 70% to less than 80%) | 8 (8: 80% to less than 90%) | 8 (8: 80% to less than 90%) | 8 (8: 80% to less than 90%) | 0 (0 (exponent): 0% to less than 10% (growth inhibition rate)) | 0 (0 (exponent): 0% to less than 10% (growth inhibition rate))
CC1(CNc2c(C#N)cnn2-c2nn3c(c2Cl)CCCC3)CC1 [Compound 4] | 9 (9: 90% to less than 100%) | 9 (9: 90% to less than 100%) | 8 (8: 80% to less than 90%) | 8 (8: 80% to less than 90%) | 9 (9: 90% to less than 100%) | 10 (10: 100%) | 0 (0 (exponent): 0% to less than 10% (growth inhibition rate)) | 1 (1: 10% to less than 20%)
N#Cc1cnn(-c2nn3c(c2Cl)CCC3)c1NCC1CC1 [Compound 5] | 9 (9: 90% to less than 100%) | 9 (9: 90% to less than 100%) | 8 (8: 80% to less than 90%) | 9 (9: 90% to less than 100%) | 9 (9: 90% to less than 100%) | 10 (10: 100%) | 0 (0 (exponent): 0% to less than 10% (growth inhibition rate)) | 1 (1: 10% to less than 20%)
N#Cc1cnn(-c2nn3c(c2Cl)CCC3)c1N(CC1CC1)C(=O)C(F)(F)F [Compound 6] | 8 (8: 80% to less than 90%) | 9 (9: 90% to less than 100%) | 7 (7: 70% to less than 80%) | 8 (8: 80% to less than 90%) | 9 (9: 90% to less than 100%) | 9 (9: 90% to less than 100%) | 0 (0 (exponent): 0% to less than 10% (growth inhibition rate)) | 0 (0 (exponent): 0% to less than 10% (growth inhibition rate))
CC(Nc1c(C#N)cnn1-c1nn2c(c1Cl)CCCC2)C1(C)CC1 (stereo not shown) [Compound 8] | 7 (7: 70% to less than 80%) | 7 (7: 70% to less than 80%) | 7 (7: 70% to less than 80%) | 8 (8: 80% to less than 90%) | 9 (9: 90% to less than 100%) | 9 (9: 90% to less than 100%) | 0 (0 (exponent): 0% to less than 10% (growth inhibition rate)) | 0 (0 (exponent): 0% to less than 10% (growth inhibition rate))
CC1CC1CN(C(=O)C(F)(F)F)c1c(C#N)cnn1-c1nn2c(c1Cl)CCCC2 (stereo not shown) [Compound 13] | 8 (8: 80% to less than 90%) | 8 (8: 80% to less than 90%) | 8 (8: 80% to less than 90%) | 8 (8: 80% to less than 90%) | 9 (9: 90% to less than 100%) | 9 (9: 90% to less than 100%) | 0 (0 (exponent): 0% to less than 10% (growth inhibition rate)) | 1 (1: 10% to less than 20%)
CC(C1CC1)N(C(=O)C(F)(F)F)c1c(C#N)cnn1-c1nn2c(c1Cl)CCCC2 (stereo not shown) [Compound 14] | 7 (7: 70% to less than 80%) | 7 (7: 70% to less than 80%) | 7 (7: 70% to less than 80%) | 8 (8: 80% to less than 90%) | 8 (8: 80% to less than 90%) | 9 (9: 90% to less than 100%) | 0 (0 (exponent): 0% to less than 10% (growth inhibition rate)) | 0 (0 (exponent): 0% to less than 10% (growth inhibition rate))
O=[N+]([O-])c1cnn(-c2nn3c(c2Cl)CCCC3)c1NCC1CC1 [Compound 114] | 7 (7: 70% to less than 80%) | 8 (8: 80% to less than 90%) | 8 (8: 80% to less than 90%) | 9 (9: 90% to less than 100%) | 9 (9: 90% to less than 100%) | 9 (9: 90% to less than 100%) | 0 (0 (exponent): 0% to less than 10% (growth inhibition rate)) | 0 (0 (exponent): 0% to less than 10% (growth inhibition rate))
O=C(N(CC1CC1)c1c([N+](=O)[O-])cnn1-c1nn2c(c1Cl)CCCC2)C(F)(F)F [Compound 115] | 8 (8: 80% to less than 90%) | 8 (8: 80% to less than 90%) | 9 (9: 90% to less than 100%) | 8 (8: 80% to less than 90%) | 8 (8: 80% to less than 90%) | 9 (9: 90% to less than 100%) | 0 (0 (exponent): 0% to less than 10% (growth inhibition rate)) | 1 (1: 10% to less than 20%)
O=[N+]([O-])c1cnn(-c2nn3c(c2Br)CCCC3)c1NCC1CC1 [Compound 158] | 7 (7: 70% to less than 80%) | 7 (7: 70% to less than 80%) | 8 (8: 80% to less than 90%) | 9 (9: 90% to less than 100%) | 8 (8: 80% to less than 90%) | 9 (9: 90% to less than 100%) | 0 (0 (exponent): 0% to less than 10% (growth inhibition rate)) | 0 (0 (exponent): 0% to less than 10% (growth inhibition rate))
O=C(N(CC1CC1)c1c([N+](=O)[O-])cnn1-c1nn2c(c1Br)CCCC2)C(F)(F)F [Compound 159] | 7 (7: 70% to less than 80%) | 8 (8: 80% to less than 90%) | 7 (7: 70% to less than 80%) | 8 (8: 80% to less than 90%) | 8 (8: 80% to less than 90%) | 9 (9: 90% to less than 100%) | 0 (0 (exponent): 0% to less than 10% (growth inhibition rate)) | 0 (0 (exponent): 0% to less than 10% (growth inhibition rate))
